Data on four compounds can be found in patent US5147855A, “Conjugates of VIP and active fragments thereof with hydrophobic moieties and topical compositions for male impotence” (Yeda Research and Development Co. Ltd., priority 1988, dated 1992).

“And” between values parts separate entries of the source, which are not always exact repeats. Equal entries are not always repeated. No end group written: not given here. NH = not defined here; oleyl = oleyl moiety

In experiment [1] the test system is sexual behaviour of male rats. The experiment can be described thus: Sexual behaviour of castrated male rats, topical application of several materials (Table III). The format is in vivo, rat. Also noted: key to Ejaculations (E): E = Ejaculations. The note with it: for Ejaculations (E) / No. Ob. / Int. Latency: individual rats; for No. Ob. / Int. Latency: castrated 14 days earlier, testosterone 4 μg/100 g BW daily; for Int. Latency: in s. From the text:
(§1) The animal model -- All tested rats (Wistar derived from the departmental colony, Hormone Research Department, at the Weizmann Institute of Science), are sexually experienced male rats around 3 months of age (body weight ~250 g). At this age, the rats are castrated by removal of the testes and injected daily with testosterone for at least 14 consecutive days.
All rats (males and females) that take part in the experiment are kept in a 12-hour light 12-hour dark cycle. Prior to testing, each male is put in a separate cage for at least 1 hour. A sexually receptive female is introduced to each male. Females were tested for their receptivity by vaginal smearings. The latencies of mounts and intromissions are recorded.
6 rats, 120 days old, sexually experienced, were tested. The rats were castrated 14 days earlier and were injected with 4 μg/100 g BW of testosterone daily. […] All 6 materials were tested by topical application.

The next experiment relates to penile erection. The note with it: injection; cited from earlier work.
The subject of experiment [2] is sexual behaviour of male rats. The experiment can be described thus: Sexual behaviour of castrated, testosterone-treated male rats after intravenous injection (Table I). The class given is in vivo, rat. Also noted: key to Ejaculations (E): E = Ejaculations.
Source text: as §1
(§2) All rats (males and females) that take part in the experiment are kept in a 12-hour light 12-hour dark cycle. Prior to testing, each male is put in a separate cage for at least 1 hour. A sexually receptive female is introduced to each male. Females were tested for their receptivity by vaginal smearings. The latencies of mounts and intromissions are recorded. […] Using castrated animals we achieved decreased sexual activity which is expressed by longer intervals between intromissions and less intromissions during the 15 min observation periods.
Initially, we tested a few VIP analogs by injection (intravenously 5-10 μg/animal). As a control we injected saline at identical volumes (5-10 μl).
Rats were castrated and injected daily for 15 consecutive days with testosterone at 4 μg/100 g body weight (BW). Tests were performed with stearyl-VIP or VIP at 10 μg/animal.

Experiment [3] concerns sexual behaviour of male rats. Description: Sexual behaviour of castrated male rats after topical application in DMSO (Table II). The class given is in vivo, rat. Also noted: key to Ejaculations (E): E = Ejaculations. The note with it: for Effect on sexual activity (words): compared with DMSO control.
Source text: as §1, §2
As we have obtained positive results with stearyl-VIP by injection we have now developed a topical application method. This was achieved by mixing 20 μl of 1 μg/ml VIP-stearyl with 10 μl dimethyl sulfoxide (DMSO) and direct topical application on the sex organ.
Rats were castrated and injected daily for 16 consecutive days with testosterone at 2 μg/100 g BW. Testing was performed by topical application of stearyl-VIP-20 μg/20 μl mixed with 10 μl DMSO and compared to topical application of 30 μl DMSO.

Experiment [4] deals with sexual behaviour of male rats. The experiment can be described thus: Sexual behaviour of male rats after topical application of ointment (Table IV). The class given is in vivo. The conditions noted are these: ointment applied onto the rat's penis.
Source text: as §1, §2
Preparation of Ointment -- Lanolin (1 g), water (3 g) DMSO (7 drops) and 10 mg of stearyl-VIP were manually homogenized in a mortar. An amount of paste, containing 30-50 μg peptide was applied onto the rat's penis and sexual behaviour, following the methodology previously described, was monitored.
(B) Using the same protocol as in (A) an ointment of VIP-oleyl was prepared and tested.

Setting [5] is: individual castrated rats, testosterone 4 μg/100 g BW daily 15 days, injection 10 μg/animal, listed as VIP stearyl.

Consider `CCCCCCCCCCCCCCCCCC(=O)O` [Stearic acid, reference compound], for which, in experiment [1], the “Ejaculations (E)” value is “E”; the “No. Ob.” value is 19 and 21; the “Int. Latency” value was 26 ± 1 and 18 ± 3 and 36 ± 2.

As for `CC(COc1ccccc1)N(CCCl)Cc1ccccc1` (stereo not drawn) [phenoxybenzamine], the Erection result with penile erection is on record as “Erection was also obtained”.

Stearyl-VIP: in experiment [2] (setting [5]), the Intromission latency was 17 ± 3 s and 28 ± 7 s and 50 ± 17 s and 33 ± 6 s and 37 ± 6 s and 56 ± 8 s and 45 ± 7 s; the “Obs. = Number of intromissons per 15 minute test period” value is 7 and 4 and 12 and 20 and 14 and 6. Besides, the “Ejaculations (E)” value in experiment [2] (individual castrated rats, injection 10 μg/animal) is given as “E”. For the same compound, the “Effect on sexual activity (words)” value in experiment [2] (injection) is recorded as “potentiates sexual activity in a comparable manner to VIP”. Besides, in experiment [3] (individual castrated rats, testosterone 2 μg/100 g BW daily 16 days, topical 20 μg/20 μl mixed with 10 μl DMSO), the “Obs. (number of intromissions)” value is 21 and 14 and 10 and 3 and 11 and 25. Moreover, the Intromission latency in experiment [3] (individual castrated rats, testosterone 2 μg/100 g BW daily 16 days, topical 20 μg/20 μl mixed with 10 μl DMSO, in s) was 23 ± 4 and 29 ± 4 and 32 ± 8 and 16 ± 3 and 38 ± 10 and 18 ± 7 and 24 ± 4. Also, in experiment [3] (individual castrated rats, topical in DMSO), the “Ejaculations (E)” value is “E”. The “Effect on sexual activity (words)” value in experiment [3] (topical in DMSO) is “remarkable sexual arousal”. For the same compound, the “Effect on sexual activity (words)” value in experiment [3] (topical in DMSO, listed as StearylVIP) was “rats B2 and A3 were sexually active only after”. In experiment [1], the “Activity upon topical application” value was “the most active analog”; the “Ejaculations (E)” value is “E”; the “No. Ob.” value was 6 and 28 and 20 and 49 and 31; the “Int. Latency” value is 66 ± 15 and 18 ± 3 and 18 ± 2 and 12 ± 3 and 26 ± 1. Moreover, in experiment [1] (6 rats), the Change in latency result is on record as “shortening of latency”, the “Change in number of ejaculations” value was “clear increase in the number of ejaculations” and the “Change in number of intromissions” value is on record as “increase in number of intromissions”. In experiment [4], the “Decrease (shortening) in intromission latency” value is “about 25%” and the Increase in ejaculations entry was “two-fold”.

As to “VIP-oleyl: VIP coupled to an oleyl moiety, tested as an ointment (HSDAVFTDNYTRLRKQMAVKKYLNSILN-{NH-oleyl}; ends and bridges not checked; UniProt P01282 125-152, looked up)”, in experiment [4], the “Decrease (shortening) in intromission latency” value is ~ 10% and the Increase in ejaculations entry is reported as “increased, though much less than stearyl-VIP”.
